Measured values taken from patent publication US20210355104A1, “ADENOSINE RECEPTOR BINDING COMPOUNDS” (Nikang Therapeuticsm Inc., priority 2018, published 2021).
Several values for one entry are separate records, joined by “and”; a condition that tells them apart may be missing. Equal entries are not always repeated. Where two headings read alike, the source gives them in different places.

What was measured:
[1] = tested on: p-CREB (phosphorylated cAMP response-element binding protein) in human whole blood; experiment: p-CREB assay in human whole blood by flow cytometry (NECA stimulation, CD4 staining); format: cell-based
Protocol: Assay protocol for p-CREB (phosphorylated cAMP response-element binding protein) in human whole blood by flow cytometry
Fresh human whole blood (Biological Specialty Corporation) was added at 100 ul per wellinto a 96-well plate and treated with test compounds (Serial dilutions of 1:3 with starting concentration at 30 uM, 11 concentrations total, in the presence of adenosine deaminase) for one hour at room temperature on a plate shaker. Then 10 ul of 10× NECA (50 uM stock in PBS) and 10 ul of 10 × Rolipram (50 uM stock in PBS) were added, with designated wells for unstimulated (Rolipram+DMSO) and stimulated (Rolipram+NECA+DMSO) conditions. The plates were mixed well and incubated at room temperature for 30 min on a plate shaker. 1× lyse/Fix buffer (5× stock, BD #558049) was warmed to 37° in a water bath. 1200 ul of pre-warmed 1× lyse/Fix buffer was then added to the plate, which was then sealed and mixed by inverting the plate a few times. The plate was then incubated for 30 min at 37° in a water bath. After incubation, the plate was centrifuged at 1600 rpm for 5 min and the supernatant was decanted, then 1200 ul PBS was added and the plate was mixed by inverting a few times followed by centrifuging at 1600 rpm for 5 min and again decanting the supernatant. Then, 200 ul FIX PERM buffer II (BD #558052) was added and the plate was mixed well, then kept on ice for 45 min After spinning the plate at 1600 rpm for 5 min the supernatant was again decanted. Then was added 200 ul staining buffer (BD #554657), and the plate was mixed well and spun at 1600 rpm for 5 min, then the supernatant was again decanted. 200 ul staining buffer was added, the plate was mixed well and the plate was sealed at this step for storage at 4° overnight or until staining. Before staining, the plate was spun at 1600 rpm for 5 min and the supernatant was again decanted. Antibody mix in staining buffer was prepared (75 ul/well, 1:50 dilution for p-CREB antibody from Cell Signaling Tech #14001S, 1:200 dilution for CD4 antibody from BD #566320) and the cells were resuspended in the above antibody mix solution. After mixing well, the plate was incubated (shielded from light) at room temperature for two hours on a plate shaker. It was then spun at 1600 rpm for 5 min and the supernatant was decanted. 200 ul staining buffer was then added to wash cells, and the plate was then mixed by shaking or pipetting. The wash step was repeated at least one more time, and after the final wash, cells were resusptended in 200 ul staining buffer in U bottom plate for flow cytometry analysis.

Adenosine A2A receptor = Adenosine A2A receptor (Homo sapiens, UniProt P29274); experiment: cAMP assay in 293A cells stably expressing the adenosine A2A receptor (CGS21680 stimulation, HTRF); format: cell-based; design: expressed in transfected cells; host or cells: 293A cells (Invitrogen, Cat# R705-07) infected with A2A-expressing lentivirus (custom packaged by Biosettia), puromycin selected; conditions: 0.1% BSA
Chain of Adenosine A2A receptor (P29274 whole entry): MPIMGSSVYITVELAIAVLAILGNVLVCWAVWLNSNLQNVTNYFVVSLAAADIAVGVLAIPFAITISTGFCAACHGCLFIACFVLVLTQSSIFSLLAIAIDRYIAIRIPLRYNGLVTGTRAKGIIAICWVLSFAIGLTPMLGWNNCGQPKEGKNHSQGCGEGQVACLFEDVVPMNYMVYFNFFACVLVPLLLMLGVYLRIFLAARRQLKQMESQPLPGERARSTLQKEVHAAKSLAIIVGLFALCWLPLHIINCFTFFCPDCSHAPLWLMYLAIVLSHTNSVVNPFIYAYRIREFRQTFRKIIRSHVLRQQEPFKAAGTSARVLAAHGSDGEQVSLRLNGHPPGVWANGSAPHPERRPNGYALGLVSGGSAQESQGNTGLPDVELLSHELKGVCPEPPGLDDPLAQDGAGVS

[2] = 293A-A2AR cells, 1 uM CGS, read-out: cAMP (nM) 0.1% BSA, 1 uM CGS
[3] = Homo sapiens, replicate values separated by /
[4] = 293A cells stably expressing A2A receptor, 1 uM CGS21680 stimulation, replicate values separated by /, read-out: cAMP (nM) 0.1% BSA, 1 uM CGS

SMILES | IC50 ([1]; Homo sapiens) | IC50 (Adenosine A2A receptor; [2]) | IC50 [1, 3] | IC50 (Adenosine A2A receptor; [4]) | other results
Cc1cc(-c2c(OCc3nc4ccccc4n3C)nc(N)nc2-c2ccc(F)cc2)cc(C(F)F)n1 [Example 314, 5-(2-(difluoromethyl)-6-methylpyridin-4-yl)-4-(4-fluorophenyl)-6-((1-methyl-1H-benzo[d]imidazol-2-yl)methoxy)pyrimidin-2-amine] | 9.8 nM | 0.4 nM and 1 nM | – | – | –
Cc1cc(-c2c(OCc3nccn3C(F)F)nc(N)nc2-c2ccc(F)cc2)cc(C(F)F)n1 [Example 306, 4-((1-(difluoromethyl)-1H-imidazol-2-yl)methoxy)-5-(2-(difluoromethyl)-6-methylpyridin-4-yl)-6-(4-fluorophenyl)pyrimidin-2-amine] | 6.9 nM | 26 nM and 23 nM | – | – | –
Cc1cc(-c2c(OCc3cccc(C(C#N)(CCO)CCO)n3)nc(N)nc2-c2ccc(F)cc2)cc(C(F)F)n1 [Example 431, 2-(6-(((2-amino-5-(2-(difluoromethyl)-6-methylpyridin-4-yl)-6-(4-fluorophenyl)pyrimidin-4-yl)oxy)methyl)pyridin-2-yl)-4-hydroxy-2-(2-hydroxyethyl)butanenitrile] | – | – | 2000 nM | 412 nM and 315 nM and 310 nM | –
Cc1cc(-c2c(OCCc3cccc(C(C)(C)O)n3)nc(N)nc2-c2ccc(F)cc2)cc(C(F)F)n1 [Example 349, 2-(6-(2-((2-amino-5-(2-(difluoromethyl)-6-methylpyridin-4-yl)-6-(4-fluorophenyl)pyrimidin-4-yl)oxy)ethyl)pyridin-2-yl)propan-2-ol] | 55 nM | 261 nM and 120 nM | – | – | –
Cc1cc(-c2c(OCc3cc(C(C)(C)C#N)ccn3)nc(N)nc2-c2ccc(F)cc2)cc(C(F)F)n1 [Example 257, 2-(2-(((2-amino-5-(2-(difluoromethyl)-6-methylpyridin-4-yl)-6-(4-fluorophenyl)pyrimidin-4-yl)oxy)methyl)pyridin-4-yl)-2-methylpropanenitrile] | 19 nM | 250 nM and 171 nM | – | – | –
Cc1cc(-c2c(OCc3nccn3C(C)C)nc(N)nc2-c2ccc(F)cc2)cc(C(F)F)n1 [Example 99, 5-(2-(difluoromethyl)-6-methylpyridin-4-yl)-4-(4-fluorophenyl)-6-((1-isopropyl-1H-imidazol-2-yl)methoxy)pyrimidin-2-amine] | – | – | – | – | IC50 ([1]; Homo sapiens, values separated by / are repeat determinations): 47 nM; IC50 (Adenosine A2A receptor; 293A-A2AR cells, 8 nM CGS, values separated by / are repeat determinations, read-out: cAMP (nM) 0.1% BSA, 8 nM CGS): 0.064 nM and 0.19 nM; IC50 (Adenosine A2A receptor; 293A-A2AR cells, 1 uM CGS, values separated by / are repeat determinations, read-out: cAMP (nM) 0.1% BSA, 1 uM CGS): 32 nM and 22 nM
Cc1cc(-c2c(OCc3cccc(C4CC4)n3)nc(N)nc2-c2ccc(F)cc2)cc(C(F)F)n1 [Example 326, 4-((6-cyclopropylpyridin-2-yl)methoxy)-5-(2-(difluoromethyl)-6-methylpyridin-4-yl)-6-(4-fluorophenyl)pyrimidin-2-amine] | 57.1 nM | 90 nM and 144 nM and 84 nM | – | – | –
Cc1cc(-c2c(OCc3cccc(N(CCO)CCO)n3)nc(N)nc2-c2ccc(F)cc2)cc(C(F)F)n1 [Example 402, 2,2′-((6-(((2-amino-5-(2-(difluoromethyl)-6-methylpyridin-4-yl)-6-(4-fluorophenyl)pyrimidin-4-yl)oxy)methyl)pyridin-2-yl)azanediyl)bis(ethan-1-ol)] | – | – | 692 nM | 515 nM and 579 nM and 560 nM | –
Cc1cc(-c2c(OCc3cccc(CNC(CO)CO)n3)nc(N)nc2-c2ccc(F)cc2)cc(C(F)F)n1 [Example 419, 2-(((6-(((2-amino-5-(2-(difluoromethyl)-6-methylpyridin-4-yl)-6-(4-fluorophenyl)pyrimidin-4-yl)oxy)methyl)pyridin-2-yl)methyl)amino)propane-1,3-diol] | – | – | 87.8 nM | 470 nM and 311 nM | –
Cc1cc(-c2c(OCCN(C)c3cccc(C(C)(C)C#N)n3)nc(N)nc2-c2ccc(F)cc2)cc(C(F)F)n1 [Example 320] | 141 nM | 13 nM and 26 nM and 8.7 nM | – | – | –
Cc1cc(-c2c(OCc3cccc([C@@H]4C[C@H]4C(=O)O)n3)nc(N)nc2-c2ccc(F)cc2)cc(C(F)F)n1 (relative stereo) [Example 353, (1,2-trans)-2-(6-(((2-amino-5-(2-(difluoromethyl)-6-methylpyridin-4-yl)-6-(4-fluorophenyl)pyrimidin-4-yl)oxy)methyl)pyridin-2-yl)cyclopropane-1-carboxylic acid] | 374 nM | 1240 nM | – | – | –
Cc1cc(-c2c(OCc3cccc(CNCC(N)=O)n3)nc(N)nc2-c2ccc(F)cc2)cc(C(F)F)n1 [Example 433, 2-(((6-(((2-amino-5-(2-(difluoromethyl)-6-methylpyridin-4-yl)-6-(4-fluorophenyl)pyrimidin-4-yl)oxy)methyl)pyridin-2-yl)methyl)amino)acetamide] | – | – | 59 nM | 342 nM and 210 nM | –
Cc1cc(-c2c(OCc3cccc(C(C)(C)NCCO)n3)nc(N)nc2-c2ccc(F)cc2)cc(C(F)F)n1 [Example 407, 2-((2-(6-(((2-amino-5-(2-(difluoromethyl)-6-methylpyridin-4-yl)-6-(4-fluorophenyl)pyrimidin-4-yl)oxy)methyl)pyridin-2-yl)propan-2-yl)amino)ethan-1-ol] | – | – | 91.5 nM | 107 nM and 88 nM | –
CNC(=O)CNCc1cccc(COc2nc(N)nc(-c3ccc(F)cc3)c2-c2cc(C)nc(C(F)F)c2)n1 [Example 440, 2-(((6-(((2-amino-5-(2-(difluoromethyl)-6-methylpyridin-4-yl)-6-(4-fluorophenyl)pyrimidin-4-yl)oxy)methyl)pyridin-2-yl)methyl)amino)-N-methylacetamide] | – | – | 95 nM | 215 nM | –
Cc1cc(-c2c(OCc3cccc(C4(C(=O)O)CCC4)n3)nc(N)nc2-c2ccc(F)cc2)cc(C(F)F)n1 [Example 392, 1-(6-(((2-amino-5-(2-(difluoromethyl)-6-methylpyridin-4-yl)-6-(4-fluorophenyl)pyrimidin-4-yl)oxy)methyl)pyridin-2-yl)cyclobutane-1-carboxylic acid] | 353 nM | 186 nM and 139 nM and 180 nM and 209 nM | – | – | –
Cc1cc(-c2c(OCCN(C)c3nccc(C(C)(C)C(=O)O)n3)nc(N)nc2-c2ccc(F)cc2)cc(C(F)F)n1 [Example 373, 2-(2-((2-((2-amino-5-(2-(difluoromethyl)-6-methylpyridin-4-yl)-6-(4-fluorophenyl)pyrimidin-4-yl)oxy)ethyl)(methyl)amino)pyrimidin-4-yl)-2-methylpropanoic acid] | 421 nM | 240 nM and 248 nM and 387 nM and 191 nM | – | – | –
Cc1cc(-c2c(OCc3cccc(C(C)(C)NC(CO)CO)n3)nc(N)nc2-c2ccc(F)cc2)cc(C(F)F)n1 [Example 417, 2-((2-(6-(((2-amino-5-(2-(difluoromethyl)-6-methylpyridin-4-yl)-6-(4-fluorophenyl)pyrimidin-4-yl)oxy)methyl)pyridin-2-yl)propan-2-yl)amino)propane-1,3-diol] | – | – | 38.7 nM | 60 nM and 44 nM | –
CCC(CC)(C(=O)O)c1cccc(COc2nc(N)nc(-c3ccc(F)cc3)c2-c2cc(C)nc(C(F)F)c2)n1 [Example 398, 2-(6-(((2-amino-5-(2-(difluoromethyl)-6-methylpyridin-4-yl)-6-(4-fluorophenyl)pyrimidin-4-yl)oxy)methyl)pyridin-2-yl)-2-ethylbutanoic acid] | – | – | 43.6 nM | 20 nM and 70 nM and 68 nM and 141 nM | IC50 ([1]; replicate values separated by /): 26.2 nM
Cc1cc(-c2c(OCc3nccc4ccccc34)nc(N)nc2-c2ccc(F)cc2)cc(C(F)F)n1 [Example 381, 5-(2-(difluoromethyl)-6-methylpyridin-4-yl)-4-(4-fluorophenyl)-6-(isoquinolin-1-ylmethoxy)pyrimidin-2-amine] | 36 nM | 16 nM and 3.2 nM | – | – | –
Cc1cc(-c2c(OCc3cccc(N(C)C)n3)nc(N)nc2-c2ccc(F)cc2)cc(C(F)F)n1 [Example 282, 5-(2-(difluoromethyl)-6-methylpyridin-4-yl)-4-((6-(dimethylamino)pyridin-2-yl)methoxy)-6-(4-fluorophenyl)pyrimidin-2-amine] | 50 nM | 90 nM and 21 nM and 100 nM | – | – | –
